In ChEMBL document CHEMBL1201862, “PubChem BioAssay data set” (2004):
Values belong to the molecule of their own block, whether it stands above or below them. Calls of active or inactive are those of the source.

How the values were obtained:
[1] = blockers of CRF-binding protein–CRF-R2 complex – cell-based, uHTS hits, 384-well, dose response (AID 651639); assay type: functional, Homo sapiens; conditions: read-out: IC50_Mean
[2] = molecular target: T1, Sentrin-specific protease 6 (Homo sapiens, UniProt Q9GZR1); assay type: functional;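 also: Luminescence-based dose-response confirmatory assay of SENP6 inhibition, following up an ultra-high-throughput screen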
T1 sequence (Q9GZR1 whole entry): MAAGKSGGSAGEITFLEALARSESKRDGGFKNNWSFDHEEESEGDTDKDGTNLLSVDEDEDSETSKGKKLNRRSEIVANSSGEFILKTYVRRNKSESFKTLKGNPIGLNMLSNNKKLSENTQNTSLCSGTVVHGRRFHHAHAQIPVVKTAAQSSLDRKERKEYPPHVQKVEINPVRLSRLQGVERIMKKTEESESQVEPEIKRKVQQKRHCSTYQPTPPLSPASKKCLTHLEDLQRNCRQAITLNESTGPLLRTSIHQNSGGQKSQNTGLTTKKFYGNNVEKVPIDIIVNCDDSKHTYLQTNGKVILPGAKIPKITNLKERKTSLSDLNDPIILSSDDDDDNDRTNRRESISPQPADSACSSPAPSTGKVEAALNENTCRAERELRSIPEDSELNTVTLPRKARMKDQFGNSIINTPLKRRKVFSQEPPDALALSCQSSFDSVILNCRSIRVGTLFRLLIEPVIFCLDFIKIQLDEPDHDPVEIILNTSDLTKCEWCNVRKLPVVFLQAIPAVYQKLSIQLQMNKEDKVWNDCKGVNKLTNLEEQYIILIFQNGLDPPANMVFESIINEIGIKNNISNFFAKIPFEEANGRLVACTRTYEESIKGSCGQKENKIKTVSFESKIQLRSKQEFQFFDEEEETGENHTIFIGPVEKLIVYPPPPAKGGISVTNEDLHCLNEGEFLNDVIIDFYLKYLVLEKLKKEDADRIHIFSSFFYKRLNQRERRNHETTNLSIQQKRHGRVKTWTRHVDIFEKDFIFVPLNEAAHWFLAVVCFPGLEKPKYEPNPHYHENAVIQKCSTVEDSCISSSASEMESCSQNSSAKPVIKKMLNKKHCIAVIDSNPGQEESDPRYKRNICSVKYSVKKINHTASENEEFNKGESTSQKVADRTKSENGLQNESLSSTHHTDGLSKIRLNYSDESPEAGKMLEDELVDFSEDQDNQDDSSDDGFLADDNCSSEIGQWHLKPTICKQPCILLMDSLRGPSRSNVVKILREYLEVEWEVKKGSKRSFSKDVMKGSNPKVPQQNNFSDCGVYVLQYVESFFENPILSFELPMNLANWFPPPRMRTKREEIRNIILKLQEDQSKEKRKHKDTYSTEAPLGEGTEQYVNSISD

[3] = molecular target: T2, Sentrin-specific protease 7 (Homo sapiens, UniProt Q9BQF6); assay type: functional;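 also: Luminescence-based dose-response confirmation of ultra-high-throughput screening hits, measuring inhibition of SENP7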
T2 sequence (Q9BQF6 whole entry): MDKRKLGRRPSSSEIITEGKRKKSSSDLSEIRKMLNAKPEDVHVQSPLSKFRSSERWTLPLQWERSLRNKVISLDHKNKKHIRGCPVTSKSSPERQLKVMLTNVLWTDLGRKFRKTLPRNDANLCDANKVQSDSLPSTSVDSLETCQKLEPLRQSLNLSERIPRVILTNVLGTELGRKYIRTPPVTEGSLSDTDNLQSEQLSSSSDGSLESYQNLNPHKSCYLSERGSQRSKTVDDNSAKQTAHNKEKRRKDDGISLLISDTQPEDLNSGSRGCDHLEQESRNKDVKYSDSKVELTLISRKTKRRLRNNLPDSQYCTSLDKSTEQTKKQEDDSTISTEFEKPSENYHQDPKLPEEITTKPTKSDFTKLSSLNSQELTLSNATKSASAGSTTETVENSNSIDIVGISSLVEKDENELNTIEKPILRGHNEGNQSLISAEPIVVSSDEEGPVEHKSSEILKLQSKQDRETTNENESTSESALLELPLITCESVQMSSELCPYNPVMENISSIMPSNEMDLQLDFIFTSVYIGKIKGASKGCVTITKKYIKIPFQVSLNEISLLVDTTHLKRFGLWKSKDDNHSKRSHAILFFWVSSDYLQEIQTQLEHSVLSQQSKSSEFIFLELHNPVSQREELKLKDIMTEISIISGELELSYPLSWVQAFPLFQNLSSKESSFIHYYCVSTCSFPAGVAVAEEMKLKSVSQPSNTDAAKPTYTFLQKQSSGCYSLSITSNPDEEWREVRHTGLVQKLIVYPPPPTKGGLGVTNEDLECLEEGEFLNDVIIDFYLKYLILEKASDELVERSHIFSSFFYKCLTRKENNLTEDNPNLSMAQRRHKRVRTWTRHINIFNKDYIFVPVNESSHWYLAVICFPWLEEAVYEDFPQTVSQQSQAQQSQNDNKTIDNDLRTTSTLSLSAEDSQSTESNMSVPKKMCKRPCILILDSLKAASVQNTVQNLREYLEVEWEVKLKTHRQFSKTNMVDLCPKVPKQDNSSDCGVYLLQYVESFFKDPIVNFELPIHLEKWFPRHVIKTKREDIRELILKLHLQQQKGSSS

[4] = fluconazole-exposed Candida albicans growth modulators – fluorescence, retest, confirmation (AID 2467); assay type: functional, cell-based
[5] = molecular target: T3, Sentrin-specific protease 8 (Homo sapiens, UniProt Q96LD8); assay type: functional;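 also: luminescence read-out of SENP8 inhibition, dose-response confirmation following an ultra-high-throughput screen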
T3 sequence (Q96LD8 whole entry): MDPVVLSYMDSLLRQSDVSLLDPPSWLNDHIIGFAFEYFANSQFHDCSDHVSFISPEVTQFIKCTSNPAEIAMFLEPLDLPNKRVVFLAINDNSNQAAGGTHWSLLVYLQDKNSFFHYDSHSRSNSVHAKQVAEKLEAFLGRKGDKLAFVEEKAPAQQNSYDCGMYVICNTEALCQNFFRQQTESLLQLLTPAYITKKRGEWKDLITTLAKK

[6] = NIH-3T3 fibroblast cytotoxicity, dose response, cytotoxicity control, cell-based, fluorescence, Alamar Blue, secondary assay (AID 2327); assay type: functional;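 also: NIH-3T3 mouse fibroblasts cultured with fluconazole at 8 µg/mL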
[7] = molecular target: T4, Caspase-3 (Homo sapiens, UniProt P42574); assay type: functional;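 also: Dose-response selectivity test against caspase-3 for candidate inhibitors of sentrin-specific proteases (SENPs)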
T4 sequence (P42574 whole entry): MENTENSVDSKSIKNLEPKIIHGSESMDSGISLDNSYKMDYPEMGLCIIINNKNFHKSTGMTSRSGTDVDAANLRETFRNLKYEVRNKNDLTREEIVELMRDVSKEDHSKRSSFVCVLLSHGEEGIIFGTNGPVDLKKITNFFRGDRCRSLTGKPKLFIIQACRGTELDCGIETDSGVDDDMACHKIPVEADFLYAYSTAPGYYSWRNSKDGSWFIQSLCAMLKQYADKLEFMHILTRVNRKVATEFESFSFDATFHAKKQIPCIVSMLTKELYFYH

[8] = molecular target: T5, Corticotropin-releasing factor receptor 2/Corticotropin-releasing factor-binding protein (Homo sapiens, UniProt P24387+Q13324); assay: activators of CRF receptor 2 with binding protein – uHTS hits, confirmation (AID 602473); assay type: functional; conditions: read-out: EC50_Mean
T5 sequence (Q13324 whole entry): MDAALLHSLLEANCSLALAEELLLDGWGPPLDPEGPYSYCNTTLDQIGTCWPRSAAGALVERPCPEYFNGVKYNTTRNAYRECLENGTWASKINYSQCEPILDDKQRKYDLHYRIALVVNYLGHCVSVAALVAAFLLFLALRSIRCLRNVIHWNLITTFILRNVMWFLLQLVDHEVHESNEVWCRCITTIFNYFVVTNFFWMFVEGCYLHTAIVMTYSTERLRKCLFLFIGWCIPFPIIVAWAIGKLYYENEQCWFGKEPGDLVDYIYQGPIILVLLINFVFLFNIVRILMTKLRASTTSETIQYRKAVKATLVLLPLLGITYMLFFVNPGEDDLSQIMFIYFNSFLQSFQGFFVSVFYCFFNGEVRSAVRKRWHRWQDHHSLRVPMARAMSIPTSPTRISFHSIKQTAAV
T5 sequence (P24387 whole entry): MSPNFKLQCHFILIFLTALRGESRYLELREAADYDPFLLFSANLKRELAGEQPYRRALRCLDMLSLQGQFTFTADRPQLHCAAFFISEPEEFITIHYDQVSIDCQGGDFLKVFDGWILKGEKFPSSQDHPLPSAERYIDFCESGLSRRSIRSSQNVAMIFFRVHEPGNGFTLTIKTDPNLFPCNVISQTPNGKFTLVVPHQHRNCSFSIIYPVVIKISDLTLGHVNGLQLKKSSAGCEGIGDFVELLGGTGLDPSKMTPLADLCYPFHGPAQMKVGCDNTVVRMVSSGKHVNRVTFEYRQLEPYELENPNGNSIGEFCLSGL

[9] = molecular target: T5, Corticotropin-releasing factor receptor 2/Corticotropin-releasing factor-binding protein; assay: Dose Response confirmation of uHTS hits for small molecule antagonists of the CRF-binding protein and CRF-R2 receptor complex.; assay type: functional; conditions: read-out: IC50_Mean
[10] = molecular target: 5-hydroxytryptamine receptor 2A (Mus musculus, UniProt P35363); assay type: functional, cell-based;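 also: CHO-K1 cells with tagged receptor and beta-arrestin; agonist potency measured as compound-induced activation of the receptor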
[11] = molecular target: Mu-type opioid receptor (Homo sapiens, UniProt P35372); assay type: functional, cell-based;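 also: U2OS cells with beta-arrestin recruitment to OPRM1 by beta-gal complementation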
[12] = molecular target: T6, Low molecular weight phosphotyrosine protein phosphatase (Homo sapiens, UniProt P24666); assay type: functional; conditions: read-out: IC50_Mean
T6 sequence (P24666 whole entry): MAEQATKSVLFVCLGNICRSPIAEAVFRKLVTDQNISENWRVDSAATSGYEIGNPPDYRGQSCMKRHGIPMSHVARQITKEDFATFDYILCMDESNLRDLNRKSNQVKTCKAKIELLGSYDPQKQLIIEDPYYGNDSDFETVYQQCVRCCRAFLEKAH

[13] = molecular target: T6, Low molecular weight phosphotyrosine protein phosphatase; assay type: functional; conditions: read-out: IC50_Mean; remark: listed apart in the source
[14] = Counterscreen for inhibitors of Trypanosoma brucei methionyl tRNA synthetase (MetRS): Luminescence-based cell-based high throughput dose response assay to identify compounds that are cytotoxic to Jurkat human T lymphocyte cells.; assay type: functional
[15] = molecular target: T7, Methionyl-tRNA synthetase, putative (Trypanosoma brucei brucei, UniProt Q38C91); assay type: functional, Trypanosoma brucei brucei strain 927/4 GUTat10.1
T7 sequence (Q38C91 whole entry): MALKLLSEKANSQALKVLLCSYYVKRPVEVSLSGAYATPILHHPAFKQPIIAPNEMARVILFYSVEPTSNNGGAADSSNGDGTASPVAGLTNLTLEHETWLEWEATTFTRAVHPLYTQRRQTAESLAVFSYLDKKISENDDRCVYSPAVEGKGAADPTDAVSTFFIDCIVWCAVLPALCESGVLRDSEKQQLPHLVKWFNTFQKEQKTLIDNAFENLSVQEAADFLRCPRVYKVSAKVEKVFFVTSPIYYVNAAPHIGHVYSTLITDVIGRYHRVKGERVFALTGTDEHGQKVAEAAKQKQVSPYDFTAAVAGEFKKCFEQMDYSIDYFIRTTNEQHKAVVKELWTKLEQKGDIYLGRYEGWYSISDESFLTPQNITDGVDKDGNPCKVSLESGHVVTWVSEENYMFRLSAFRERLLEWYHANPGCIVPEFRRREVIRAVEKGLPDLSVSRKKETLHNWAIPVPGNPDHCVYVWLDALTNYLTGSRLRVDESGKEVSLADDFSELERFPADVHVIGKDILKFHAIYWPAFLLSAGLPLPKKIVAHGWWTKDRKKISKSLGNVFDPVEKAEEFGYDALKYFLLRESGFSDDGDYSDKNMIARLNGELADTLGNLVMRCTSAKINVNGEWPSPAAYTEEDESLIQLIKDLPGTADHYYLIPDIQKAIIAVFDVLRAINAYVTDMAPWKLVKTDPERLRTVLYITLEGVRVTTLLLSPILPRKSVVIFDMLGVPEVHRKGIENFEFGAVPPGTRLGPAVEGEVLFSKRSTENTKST

[16] = molecular target: T7, Methionyl-tRNA synthetase, putative; assay type: functional, Trypanosoma brucei brucei strain 927/4 GUTat10.1; remark: listed apart in the source

Chain of Mu-type opioid receptor (P35372 whole entry): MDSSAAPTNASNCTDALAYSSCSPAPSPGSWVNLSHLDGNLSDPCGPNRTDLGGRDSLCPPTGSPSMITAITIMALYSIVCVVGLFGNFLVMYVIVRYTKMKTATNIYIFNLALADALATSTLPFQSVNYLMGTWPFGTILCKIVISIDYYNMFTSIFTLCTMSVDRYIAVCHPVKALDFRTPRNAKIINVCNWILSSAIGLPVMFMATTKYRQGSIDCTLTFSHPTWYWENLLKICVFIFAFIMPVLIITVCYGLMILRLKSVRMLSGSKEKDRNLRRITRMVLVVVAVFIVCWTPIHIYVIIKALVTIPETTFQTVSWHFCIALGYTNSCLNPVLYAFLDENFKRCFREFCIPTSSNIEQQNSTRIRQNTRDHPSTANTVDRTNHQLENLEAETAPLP
Chain of 5-hydroxytryptamine receptor 2A (P35363 whole entry): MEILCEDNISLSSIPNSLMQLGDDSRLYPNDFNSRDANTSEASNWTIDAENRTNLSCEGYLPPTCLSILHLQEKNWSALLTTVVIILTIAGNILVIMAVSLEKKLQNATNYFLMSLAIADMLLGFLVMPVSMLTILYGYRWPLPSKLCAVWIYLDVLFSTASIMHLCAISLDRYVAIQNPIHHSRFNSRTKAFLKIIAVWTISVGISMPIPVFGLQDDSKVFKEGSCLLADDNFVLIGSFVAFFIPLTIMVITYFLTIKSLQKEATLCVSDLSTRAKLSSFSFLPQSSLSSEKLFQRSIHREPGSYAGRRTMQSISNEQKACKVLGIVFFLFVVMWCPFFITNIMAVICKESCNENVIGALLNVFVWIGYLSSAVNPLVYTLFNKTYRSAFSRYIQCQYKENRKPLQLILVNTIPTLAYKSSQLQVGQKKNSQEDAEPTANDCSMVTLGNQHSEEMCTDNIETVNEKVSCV

Compound: Cc1ccc(SCC(=O)Nc2cc([N+](=O)[O-])ccc2O)cc1
IC50 [1]: 13.5 µM (active) | IC50 [2]: 25.6 µM (active) | IC50 [3]: 29.3 µM (active) | EC50 [4]: 0.046 µM (active) | IC50 [5]: 31.3 µM (active) | EC50 [6]: > 150 µM (inconclusive) | IC50 [7]: 17.9 µM (active) | EC50 [8]: 23.4 µM (active) | IC50 [9]: 2.34 µM (active)

Compound: COc1ccc(CN2CCN(C(=O)c3ccco3)CC2)cc1OC
EC50 [10]: 2.8 µM (active) | EC50 [11]: 92.5 µM (inactive)

Compound: Fc1cccc(CN2CCN(c3ncccn3)CC2)c1
EC50 [10]: 0.277 µM (active) | EC50 [11]: 92.5 µM (inactive)

Compound: COc1ccc(NC(=O)CC2C(=O)N(C)C(=S)N2CCc2ccc(F)cc2)cc1 (centres undefined)
IC50 [14]: 63.3 µM (inactive) | IC50 [15]: 17.4 µM (inactive) | IC50 [16]: 6.36 µM (active)

Compound: O=C(Cc1cccc(Cl)c1)Nc1ccc(Br)cc1
IC50 [14]: 83.3 µM (inactive) | IC50 [15]: 11.1 µM (inactive) | IC50 [16]: 7.49 µM (active)

More lines, now with the values ahead:

IC50 [12]: 54.9 µM (inactive) | IC50 [13]: 13.1 µM (active)
Compound: COc1ccc(Nc2nc(-c3ccc4c(c3)NC(=O)CO4)cs2)cc1

IC50 [1]: > 20 µM (inactive) | EC50 [8]: > 53 µM (inactive) | IC50 [9]: 7.25 µM (active)
Compound: O=C1CC(c2ccccc2)SC(N(c2ccccc2)c2ccccc2)=N1 (centres undefined)

IC50 [1]: 8.75 µM (active) | EC50 [8]: > 53 µM (inactive) | IC50 [9]: 4.32 µM (active)
Compound: Cc1ccc(NC(=O)COC(=O)CCc2c[nH]c3ccccc23)c(C)c1

IC50 [12]: 2.34 µM (active) | IC50 [13]: 11.5 µM (active)
Compound: Cc1nccc(O)c1Cc1c(Cl)cccc1Cl
